Experimental data from paper PMC11767451, “Novel Approaches to Monitor Pharmacokinetics and Metabolism of Gemcitabine-Ibandronate Conjugate in Mice and Dogs” (Molecules, 2025).

Assay: Autosampler stability of extracted mouse plasma samples at 4 °C
Assay type: physicochemical
Description: The stability of extracted dog and mouse plasma samples in the autosampler at 4 °C was established for 24 and 48 h. Except for GEM-IB, in mouse and dog plasma extracts, all analytes were within ±20% of the nominal enriched concentration for up to 48 h in the autosampler. GEM-IB was stable for up to 24 h under these conditions.
Method development and validation was conducted following applicable FDA guidelines for bioanalytical assays, as considered fit for purpose. Specificity. Endogenous interferences were excluded by analysis of blank plasma from 6 different individual lots of plasma. The lower limit of quantification (LLOQ) was determined as the lowest concentration consistently achieving an accuracy better than ±20% of the nominal concentration, with imprecision ≤20%. Predefined acceptance criteria. The performance of the assay was considered acceptable if intra- and inter-day imprecision (coefficient of variance, %CV) at each concentration was ≤15%, except at the LLOQ (≤20%). Intra- and inter-day accuracy had to be ±15% of the nominal value, except at the LLOQ (±20%). Calibration curves had to have a correlation coefficient (r) of 0.99 or better. Analytical recovery and imprecision. Intra- and inter-day analytical accuracy and imprecision were tested at least at four concentration levels depending on the LLOQ for each compound. Intra-day imprecision and accuracy were determined with n = 6 per QC level. Inter-day imprecision and accuracy were measured over 3 days, with six replicates for each QC concentration (n = 18). Extraction efficiency and matrix effect. Extraction efficiency for GEM-IB and metabolites was established by comparing the signals of the analytes after the extraction of QCs (n = 6/concentrations), with the signals of the extracted blank matrix spiked with the respective concentrations of analytes after the extraction procedure. The matrix effect was determined by comparing the analyte LC-MS/MS signal after spiking of the analyte into the extracted blank matrix (matrix from 6 different individual lots, analyte concentrations as for the QC samples) with the HPLC-MS/MS signal of the same amount of analyte in neat solution [25]. Carry-over. Carry-over was assessed by injecting blank buffer samples after analysis of the highest calibrators. Carry-over was considered insignificant if there was no signal at the relevant retention times exceeding 20% of the analyte signals at the LLOQ. Stability. QC samples were freshly prepared. One set was extracted and was analyzed immediately to determine baseline signals. Analyte stability in plasma was evaluated at two QC concentration levels (n = 3/concentration level) under different conditions: 1, 2, and 24 h at room temperature and at 4 °C. In addition, stability after extraction was determined after 24 h and 48 h at 4 °C in the autosampler and for up to 3 freeze (−70 °C)–thaw (ambient) cycles. Stability was assessed by comparing analyte concentrations with baseline (t0) concentrations. Stability was assumed when the results were within ±20% of the baseline concentrations. Long-term stability estimates were performed by re-extraction of samples used during the PK study (n = 6). Samples were initially analyzed for the PK assessment and were stored for 1.5 years (GEM-IB and IB) and 2.5 years (GEM, GEMMP, dFdU, and dFdU-MP) at <−70 °C prior to reanalysis. Stability was assessed by comparing analyte concentrations with the initial assessments. Stability was acceptable when the results were within ±20% of the baseline concentrations and the percent standard deviation (%-SD) was below 25%.

## Nc1ccn([C@@H]2O[C@H](CO)[C@@H](O)C2(F)F)c(=O)n1 [GEM, gemcitabine]
24 hours autosampler 4 °C
  %-ACC (% accuracy vs nominal): 102.0%
48 hours autosampler 4 °C
  %-ACC (% accuracy vs nominal): 107.0%

## O=c1ccn([C@@H]2O[C@H](CO)[C@@H](O)C2(F)F)c(=O)[nH]1 [dFdU, 2′,2′-difluoro-2′-deoxyuridine]
24 hours autosampler 4 °C
  %-ACC (% accuracy vs nominal): 103.9%
48 hours autosampler 4 °C
  %-ACC (% accuracy vs nominal): 103.4%

## O=c1ccn([C@@H]2O[C@H](COP(=O)(O)O)[C@@H](O)C2(F)F)c(=O)[nH]1 [dFdUMP, 2′,2′-difluoro-2′-deoxyuridine-5′-phosphate]
24 hours autosampler 4 °C
  %-ACC (% accuracy vs nominal): 102.4%
48 hours autosampler 4 °C
  %-ACC (% accuracy vs nominal): 98.8%

## CCCCCN(C)CCC(O)(P(=O)(O)O)P(=O)(O)O [IB, ibandronate]
24 hours autosampler 4 °C
  %-ACC (% accuracy vs nominal): 97.6%
48 hours autosampler 4 °C
  %-ACC (% accuracy vs nominal): 98.6%

## Nc1ccn([C@@H]2O[C@H](COP(=O)(O)O)[C@@H](O)C2(F)F)c(=O)n1 [GEMMP, gemcitabine-5′-phosphate]
24 hours autosampler 4 °C
  %-ACC (% accuracy vs nominal): 96.9%
48 hours autosampler 4 °C
  %-ACC (% accuracy vs nominal): 100.4%

## CCCCCN(C)CCC(O)(P(=O)(O)O)P(=O)(O)OP(=O)(O)OC[C@H]1O[C@@H](n2ccc(N)nc2=O)C(F)(F)[C@@H]1O (stereo partly drawn) [GEM-IB]
24 hours autosampler 4 °C
  %-ACC (% accuracy vs nominal): 96.8%
48 hours autosampler 4 °C
  %-ACC (% accuracy vs nominal): 59.7%
